Measurements reported in the supplement of paper PMC10307832.

Assays:
Assay in all cases: relative viability (nuclei count vs DMSO), 5 days (fraction); higher = more cells survive
Sunitinib = compound: CCN(CC)CCNC(=O)c1c(C)[nH]c(/C=C2\C(=O)Nc3ccc(F)cc32)c1C [Sunitinib]
Summary of the method: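 Hoechst staining, done together with fixation and permeabilisation, marked nuclei for 4× imaging and MetaXpress counting. This followed 5 days without medium change after lung cancer cell lines, kept overnight at 37 °C in 1536-well plates, were pinned with five library-drug doses (not always all listed) spaced by √10 on vehicle-anchored plates. Viability is the ratio of treated-well to vehicle-well nuclei, expressed as a median across plates. Plates passed only at control CV below 25% with at least one doubling.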

Sunitinib + Olaparib = compound: CCN(CC)CCNC(=O)c1c(C)[nH]c(/C=C2\C(=O)Nc3ccc(F)cc32)c1C [Sunitinib] + O=C(c1cc(Cc2n[nH]c(=O)c3ccccc23)ccc1F)N1CCN(C(=O)C2CC2)CC1 [Olaparib] (partner 8 µM)
Summary of the method: (§1)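 Lung cancer cell lines, seeded in 1536-well plates, were treated the following day by pin tool with a single drug or with five library-drug doses (not always all listed) in √10 steps on top of a fixed anchor-drug dose. Cells were fixed and nuclei stained in one step after 5 days, and nuclei were counted. Relative viability is the nuclei count for treated wells divided by that for vehicle wells, reported as medians of duplicate plates.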

Sunitinib + Phenformin = compound: CCN(CC)CCNC(=O)c1c(C)[nH]c(/C=C2\C(=O)Nc3ccc(F)cc32)c1C [Sunitinib] + N=C(N)NC(=N)NCCc1ccccc1 [Phenformin] (partner 250 µM)
Summary of the method: as §1

Sunitinib + Trametinib = compound: CCN(CC)CCNC(=O)c1c(C)[nH]c(/C=C2\C(=O)Nc3ccc(F)cc32)c1C [Sunitinib] + CC(=O)Nc1cccc(-n2c(=O)n(C3CC3)c(=O)c3c(Nc4ccc(I)cc4F)n(C)c(=O)c(C)c32)c1 [Trametinib] (partner 0.02 µM)
Summary of the method: as §1

Cell Line	relative viability (Sunitinib; 0.02 µM)	relative viability (Sunitinib; 0.06325 µM)	relative viability (Sunitinib; 0.2 µM)	relative viability (Sunitinib; 0.6325 µM)	relative viability (Sunitinib; 2 µM)	relative viability (Sunitinib + Olaparib; first compound 0.02 µM)	relative viability (Sunitinib + Olaparib; first compound 0.06325 µM)	relative viability (Sunitinib + Olaparib; first compound 0.2 µM)	relative viability (Sunitinib + Olaparib; first compound 0.6325 µM)	relative viability (Sunitinib + Olaparib; first compound 2 µM)	relative viability (Sunitinib + Phenformin; first compound 0.02 µM)	relative viability (Sunitinib + Phenformin; first compound 0.06325 µM)	relative viability (Sunitinib + Phenformin; first compound 0.2 µM)	relative viability (Sunitinib + Phenformin; first compound 0.6325 µM)	relative viability (Sunitinib + Phenformin; first compound 2 µM)	relative viability (Sunitinib + Trametinib; first compound 0.02 µM)	relative viability (Sunitinib + Trametinib; first compound 0.06325 µM)	relative viability (Sunitinib + Trametinib; first compound 0.2 µM)	relative viability (Sunitinib + Trametinib; first compound 0.6325 µM)	relative viability (Sunitinib + Trametinib; first compound 2 µM)
LOU-NH91	1.01	0.969	1	0.98	0.941	0.899	0.903	1.01	1.05	0.875	0.734	0.699	0.765	0.825	0.764	0.791	0.811	0.844	0.823	0.787
HCC-15	0.988	1.11	–	1.04	1	0.762	0.742	0.807	0.768	0.625	0.424	0.523	0.588	0.49	0.404	0.36	0.316	0.305	0.352	0.312
HCC-827	1.01	1.06	1.05	1.05	1.04	0.722	0.696	0.622	0.648	0.597	0.366	0.401	0.439	0.403	0.291	0.555	0.61	0.558	0.613	0.618
NCI-H1734	0.916	1.11	1.04	1.05	0.981	0.552	0.618	0.691	0.619	0.539	0.345	0.46	0.474	0.392	0.358	0.595	0.665	0.747	0.653	0.644
NCI-H322M	0.866	1.02	1	0.936	0.892	0.83	0.771	0.798	0.802	0.745	0.736	0.857	–	0.855	0.7	0.536	0.516	0.554	0.477	0.525
SW 1573	0.947	1.17	1.26	1.11	0.905	0.488	0.56	0.622	0.522	0.511	0.338	0.449	0.368	0.386	0.306	0.522	0.626	0.515	0.729	0.582
NCI-H2126	0.946	1.06	1.04	1.04	1.03	0.924	0.978	0.978	1	0.884	0.509	0.534	0.537	0.561	0.517	0.545	0.59	0.612	0.573	0.605
201T	0.938	0.999	1.02	0.989	0.987	0.843	0.845	0.855	0.865	0.853	0.444	0.468	0.496	0.468	0.434	0.704	0.75	0.739	0.717	0.697
NCI-H2009	0.957	1.07	1.07	1.11	–	0.675	0.739	0.717	0.799	0.778	0.446	0.501	0.461	0.465	0.429	0.242	0.332	0.274	0.25	0.181
NCI-H2087	1.16	1.25	1.13	1.1	1.11	0.605	0.689	0.822	0.674	0.56	0.456	0.398	0.545	0.507	0.42	0.2	0.234	0.266	0.211	0.237
CAL-12T	0.908	1.03	1.11	1.13	1.03	0.718	0.755	0.791	0.817	0.772	0.515	0.648	0.591	0.702	0.518	0.322	0.356	0.4	0.407	0.268
UMC-11	0.872	1.11	1.01	0.995	0.937	0.387	0.382	0.674	0.324	0.324	0.331	0.352	0.355	0.324	0.309	0.709	0.793	0.811	0.787	0.783
NCI-H1793	–	0.974	–	0.964	0.831	–	0.726	1.03	1	0.706	0.349	0.319	0.483	0.326	0.333	–	0.364	0.377	0.514	0.331
SK-LU-1	0.972	1.19	1.1	1.13	0.959	0.422	0.494	0.555	0.491	0.532	0.46	0.63	0.586	0.523	0.409	0.432	0.518	0.545	0.537	0.525
NCI-H1437	1.03	1.03	–	0.996	1.09	0.623	0.641	0.614	0.61	0.647	0.362	0.314	0.321	0.297	0.323	0.478	0.539	0.611	0.607	0.537
NCI-H2023	0.874	1.09	1.07	1.03	0.967	0.487	0.485	0.518	0.462	0.465	0.391	0.446	0.519	0.459	0.385	0.425	0.615	0.614	0.454	0.444
LK-2	0.936	1.02	1.22	0.905	1.01	0.668	0.82	0.926	0.617	0.6	0.224	0.427	0.406	0.494	0.249	0.498	0.809	0.858	0.747	0.964
RERF-LC-KJ	0.956	1.06	1.08	0.992	–	0.872	0.939	1.04	0.971	0.896	0.422	0.407	0.48	0.411	0.404	0.903	0.854	0.953	0.87	0.86

Cell Line	relative viability (Sunitinib; 0.02 µM)	relative viability (Sunitinib; 0.06325 µM)	relative viability (Sunitinib; 0.2 µM)	relative viability (Sunitinib; 0.6325 µM)	relative viability (Sunitinib; 2 µM)	relative viability (Sunitinib + Olaparib; first compound 0.02 µM)	relative viability (Sunitinib + Olaparib; first compound 0.06325 µM)	relative viability (Sunitinib + Olaparib; first compound 0.2 µM)	relative viability (Sunitinib + Olaparib; first compound 0.6325 µM)	relative viability (Sunitinib + Olaparib; first compound 2 µM)	relative viability (Sunitinib + Phenformin; first compound 0.02 µM)	relative viability (Sunitinib + Phenformin; first compound 0.06325 µM)	relative viability (Sunitinib + Phenformin; first compound 0.2 µM)	relative viability (Sunitinib + Phenformin; first compound 0.6325 µM)	relative viability (Sunitinib + Phenformin; first compound 2 µM)	relative viability (Sunitinib + Trametinib; first compound 0.02 µM)	relative viability (Sunitinib + Trametinib; first compound 0.06325 µM)	relative viability (Sunitinib + Trametinib; first compound 0.2 µM)	relative viability (Sunitinib + Trametinib; first compound 0.6325 µM)	relative viability (Sunitinib + Trametinib; first compound 2 µM)
HCC-44	–	1.04	1.04	1.01	1.04	0.958	0.97	0.979	1	1.05	0.29	0.238	0.274	0.145	0.142	1.06	1.14	1.1	1.08	–
IA-LM	0.951	0.953	1.05	1.1	1.07	0.826	0.973	0.842	–	0.981	–	–	–	–	–	–	–	–	–	–
NCI-H1755	–	–	1.04	1.03	1.05	0.859	0.881	0.93	0.961	0.91	0.574	0.672	0.675	0.692	0.642	0.763	0.768	0.92	0.736	0.767
NCI-H2170	0.909	0.993	1.05	0.953	0.959	0.593	0.571	0.651	0.605	0.535	0.474	0.398	0.436	0.408	0.367	0.905	0.915	1.05	0.927	0.921
NCI-H441	0.863	–	1.17	1.11	1.12	0.481	0.557	0.796	0.659	0.61	0.729	0.816	0.781	0.957	0.793	0.432	0.581	0.518	0.524	0.409
LXF-289	0.949	0.986	1.04	1.02	1.01	1.03	1.06	1.2	1.11	1.12	0.461	0.517	0.548	0.533	0.511	0.621	0.714	0.679	0.728	0.689
PC-14	1.01	1.01	1.13	1.02	0.898	0.292	0.334	0.196	0.335	0.211	0.557	0.552	0.674	0.568	0.571	0.665	0.743	0.833	0.771	0.579
ABC-1	1.03	1.23	1.06	1.02	1.01	0.728	0.919	0.868	1.06	0.966	0.218	0.254	0.218	0.242	0.225	–	–	–	–	–
COR-L23	0.951	1.08	1.15	1.2	1.1	0.317	0.349	0.361	0.385	0.351	0.421	0.482	0.469	0.443	0.461	0.466	0.57	0.548	0.656	0.547
NCI-H647	0.991	1.14	1.03	0.989	0.956	0.536	0.517	0.655	0.639	0.396	0.489	0.72	0.542	0.55	0.471	0.367	0.479	0.547	0.426	0.408
NCI-H2347	1.01	1.08	1.1	1.04	1.18	0.596	0.611	0.695	0.609	0.572	0.486	0.484	0.567	0.384	0.404	0.293	0.251	0.24	0.314	0.296
NCI-H1648	0.767	–	1.15	1.13	1.17	1.11	0.583	–	0.751	0.707	–	–	–	–	–	0.502	0.529	0.524	0.445	0.499
A549	0.945	1.1	1.23	1.06	0.972	0.282	0.326	0.348	0.484	0.383	0.166	0.214	0.148	0.126	0.155	–	–	–	–	–
NCI-H1299	0.99	1.07	1.04	1.04	1.08	0.935	0.977	0.998	1.02	0.991	–	–	–	–	–	–	–	–	–	–
Calu-6	0.954	1.04	1.09	1.06	1.07	0.575	0.57	0.598	0.571	0.614	–	–	–	–	–	–	–	–	–	–
NCI-H1563	0.955	1.04	0.969	0.939	0.967	–	–	–	–	–	0.661	0.707	0.738	–	0.706	–	–	–	–	–
NCI-H1703	0.616	0.257	0.315	0.216	0.242	0.229	0.267	0.251	0.154	0.157	–	–	–	–	–	–	–	–	–	–
